Several values for one entry are separate records, joined by “and”; a condition that tells them apart may be missing. Identical values can stand only once. Bridge positions count the residues as written; N and C are the ends. Peptide text beside a SMILES is read from it.
Experiments:
[1] = tested on: COL1A1 mRNA in primary murine skin fibroblasts; experiment: COL1A1 mRNA quantification by RT-PCR; assay type: cell-based
Description: (§1) Insulin promotes wound healing and overall skin health by affecting a number of processes, including cell proliferation, cell migration, and the production and secretion of ECM components, particularly type I collagen. We therefore assessed the ability of P12-3A to influence these processes in cultured skin fibroblasts and keratinocytes. To that end, primary mouse skin fibroblasts were grown for 4 d in multiple concentrations of insulin in the presence or absence of P12-3A, and insulin concentration over time was monitored by ELISA. […] Finally, the effects of P12-3A on collagen production in were assessed at both the transcriptional and the posttranslational level in confluent monolayers of fibroblasts. After 4 d of treatment with P12-3A (100 μM), mRNA levels for the major form of collagen, alpha-1 type I collagen (COL1A1), were quantified by RT-PCR and found to be increased to ~2.6 times the levels of untreated cells (Fig 4C). To assess overall levels of collagen production and secretion, we quantified levels of hydroxyproline, a modified amino acid present almost exclusively in collagen proteins. […] Western blotting also confirmed that mature, cell-associated collagen levels were increased in the presence of P12-3A (Fig 4E).
(§2) Fig 4 Effects of P12-3A on cultured skin cells. A, Insulin concentrations as a function of time in logarithmically growing primary murine skin fibroblasts in the absence or presence of P12-3A (100 μM). […] Data are mean ± SEM of 4 independent replications. *P<0.05, **P<0.01. B, Proliferation of cells in the absence or presence of P12-3A (100 μM). Data are mean ± SEM of 6 independent replications. […] C,D,E, P12-3A (100 μM) potentiates insulin-induced collagen production in skin fibroblasts. Collagen production was assessed by COL1A1 mRNA levels (C), levels of hydroxyproline secreted into the medium (D), and cell-associated mature alpha-1 type I collagen levels detected by Western blotting (E). Data are mean ± SD of 4 independent replications. *P<0.05, **P<0.01. […] Migration of HaCaT cells 48 h after induction of a scratch wound in the presence of the indicated quantities of insulin and/or P12-3A (100 μM). Data are mean ± SEM of 6 independent replications. *P<0.05, **P<0.01.
RNA was extracted from freshly lysed cells, reverse transcribed and amplified using the Ambion® Fast SYBR® Green Cells-to-CT™ Kit according to manufacturer’s recommendations (Thermo Fisher Scientific, Waltham, MA, USA). The quantitative real-time PCR reaction was conducted using a 7500 real-time PCR system and analyzed using System SDS software v2.0.5 (Applied Biosystems). Murine COL1A1 mRNA was detected using the following primers (forward: 5’-[…] and reverse: 5’ […]). Fold change differences between samples were determined using the comparative Ct (ΔΔCt) method, normalized to internal standards detected with the SYBR® Green Cells-to-CT™ Control Kit according to manufacturer’s recommendations (Thermo Fisher Scientific, Waltham, MA, USA) calculated by 2^-ΔΔCt.

[2] = tested on: primary murine skin fibroblasts; experiment: Insulin degradation in primary murine skin fibroblasts (ELISA of conditioned medium); assay type: cell-based; details: for Percent insulin remaining, Mean / Percent insulin remaining: P12-3A 100 uM, 100nM insulin added; for Percent insulin remaining, Mean: N 4; for Percent insulin remaining: conditioned medium, individual replicates
Description: as §1, §2
(§3) IDE activity was quantified by monitoring the degradation of Mca-[…](Dnp) (FRET1, 5 μM), fluoresceinated and biotinylated amyloid ß-protein (FAßB; 500 nM) or recombinant human insulin (50 nM) in PBS supplemented with 0.05% BSA. FRET1 degradation was measured by changes in fluorescence (λex = 340 nm, λem = 420 nm); FAßB degradation was monitored by fluorescence polarization (λex = 488 nm, λem = 525 nm), as described; and insulin degradation was quantified by ELISA. In vitro activity assays incorporated recombinant human IDE (1 nM) purified from bacteria. For quantitation of insulin degradation in primary murine skin fibroblasts, cells (1 x 10^5/well) were plated in 96-well plates and maintained in DMEM supplemented with 10% fetal bovine serum (FBS), 2mM glutamine, penicillin and streptomycin. After addition of insulin (10 nM or 100 nM), samples of conditioned medium were removed daily and quickly frozen, then insulin levels were quantified in parallel by ELISA according to manufacturer’s recommendations (Crystal Chem, Downers Grove, IL, USA). Assessment of the activity of P12-3A against a variety of matrix-metalloproteases was conducted using the Matrix Metalloproteinase (MMP) Inhibitor Profiling Kit, Fluorometric RED (Enzo Life Sciences, Inc., Farmingdale, NY, USA) according to manufacturer’s recommendations using the broad-spectrum MMP inhibitor, NNGH, as a positive control.

[3] = tested on: multiple matrix-metalloproteases (MMPs); experiment: Matrix Metalloproteinase (MMP) Inhibitor Profiling Kit, Fluorometric RED; assay type: biochemical; design: % activity relative to DMSO-only controls, single runs / % activity relative to DMSO-only controls, Mean: concentration or dose not given beside the values; details: for % activity relative to DMSO-only controls, single runs: each run mean of duplicates
Description: as §3
Supplementary file pone.0193101.s004.tif: S4 Fig Selectivity of P12-3A for IDE vis-à-vis other proteases. Activity of P12-3A (100 μM) against (A) multiple matrix-metalloproteases (MMPs) and (B) multiple peptidases of different protease classes. […] Data are mean ± SD, n = 8–16 per group. P<0.05 by 2-tailed Student’s t-test. […] See Materials and Methods for details. NEP, neprilysin; mCatD, murine cathepsin D; hCatD, human cathepsin D. (TIF) Click here for additional data file.

[4] = P12-3A 100 uM, individual replicates

**Q.** Which “COL1A1 mRNA levels” value ([1]; 100 μM P12-3A, 4 d, confluent monolayers) does the source give for `CC(C)C[C@H](NC(=O)[C@H](CO)NC(=O)[C@@H](N)CCC(N)=O)C(=O)N1CCC[C@H]1C(=O)N[C@@H](Cc1c[nH]c2ccccc12)C(=O)N[C@H]1CSSC[C@@H](C(=O)N[C@H](C(=O)N[C@H](C(N)=O)[C@@H](C)O)C(C)C)NC(=O)[C@H](Cc2c[nH]cn2)NC(=O)[C@@H]2CCCN2C(=O)[C@H](Cc2ccc(O)cc2)NC1=O` [P12-3A] (H-QSLPWCYPHCVT-NH2; disulfide 6-10 (inferred)) here?
**A.** Its value is ~ 2.6 times the levels of untreated cells.

**Q.** What about the “2^(-DCt), COL1A1 mRNA, Mean” value ([1]; P12-3A 100 uM, N 4) of the same compound?
**A.** Its value is 0.490.

**Q.** And the “DCt (COL1A1 mRNA vs internal standard ß-actin), Mean” value ([1]; P12-3A 100 uM, N 4)?
**A.** The value was 1.082.

**Q.** What about the “2^(-DCt), COL1A1 mRNA” value [1, 4] of the same compound?
**A.** The value was 0.454 and 0.570 and 0.306 and 0.629.

**Q.** What about the “DCt (COL1A1 mRNA vs internal standard ß-actin)” value [1, 4] of the same compound?
**A.** Its value is 1.14 and 0.81 and 1.71 and 0.67.

**Q.** What about the “COL1A1 mRNA, normalized, Mean” value ([1]; P12-3A 100 uM, normalized to control mean (1.000), N 4) of the same compound?
**A.** Its value is 2.644.

**Q.** What about the “COL1A1 mRNA, normalized” value ([1]; P12-3A 100 uM, normalized to control mean (1.000), individual replicates) of the same compound?
**A.** The value was 2.451 and 3.081 and 1.651 and 3.395.

**Q.** And the “Ct, COL1A1 mRNA, Mean” value ([1]; P12-3A 100 uM, raw Ct, N 4)?
**A.** The value was 21.783.

**Q.** And the “Ct, COL1A1 mRNA” value ([1]; P12-3A 100 uM, raw Ct, individual replicates)?
**A.** Its value is 22.07 and 21.23 and 21.93 and 21.9.

**Q.** What about the “insulin levels over time in cells” value ([2]; 100 μM P12-3A, 10 nM insulin, up to day 4, logarithmically growing cells) of the same compound?
**A.** The value was “remain constant”.

**Q.** And the “Percent insulin remaining, Mean” value ([2]; t 0 d)?
**A.** The value was 100.0%.

**Q.** And the Percent insulin remaining ([2]; t 0 d)?
**A.** Its Percent insulin remaining is 85.1403% and 114.724% and 102.178% and 97.9576%.

**Q.** And the “Percent insulin remaining, Mean” value ([2]; t 1 d)?
**A.** The value was 102.0%.

**Q.** And the Percent insulin remaining ([2]; t 1 d)?
**A.** Its Percent insulin remaining is 95.514% and 88.3018% and 126.115% and 98.0694%.

**Q.** What about the “Percent insulin remaining, Mean” value ([2]; t 2 d) of the same compound?
**A.** Its value is 97.0%.

**Q.** And the Percent insulin remaining ([2]; t 2 d)?
**A.** Its Percent insulin remaining is 100.082% and 83.3067% and 102.861% and 101.75%.

**Q.** And the “Percent insulin remaining, Mean” value ([2]; t 3 d)?
**A.** Its value is 91.0%.

**Q.** And the Percent insulin remaining ([2]; t 3 d)?
**A.** Its Percent insulin remaining is 84.576% and 69.9969% and 96.4916% and 112.935%.

**Q.** What about the “Percent insulin remaining, Mean” value ([2]; t 4 d) of the same compound?
**A.** The value was 96.0%.

**Q.** What about the Percent insulin remaining ([2]; t 4 d) of the same compound?
**A.** The Percent insulin remaining was 100.148% and 97.4317% and 103.413% and 83.0078%.

**Q.** What about the “% activity relative to DMSO-only controls, Mean” value ([3]; MMP-1) of the same compound?
**A.** Its value is 87%.

**Q.** And the “% activity relative to DMSO-only controls, single runs” value ([3]; MMP-1)?
**A.** Its value is 105.8321% and 102.1980% and 83.6377% and 95.1040% and 96.8615% and 66.9344% and 67.7846% and 75.7623%.

**Q.** What about the “% activity relative to DMSO-only controls, Mean” value ([3]; MMP-2) of the same compound?
**A.** The value was 101%.

**Q.** And the “% activity relative to DMSO-only controls, single runs” value ([3]; MMP-2)?
**A.** The value was 134.1641% and 93.5356% and 119.9423% and 88.3713% and 112.6968% and 77.2842% and 100.8622% and 77.2868%.

**Q.** What about the “% activity relative to DMSO-only controls, Mean” value ([3]; MMP-3) of the same compound?
**A.** The value was 93%.

**Q.** What about the “% activity relative to DMSO-only controls, single runs” value ([3]; MMP-3) of the same compound?
**A.** The value was 94.6432% and 93.2955% and 89.9170% and 91.8916% and 91.6457% and 97.0044% and 92.2721% and 90.5895%.

**Q.** What about the “% activity relative to DMSO-only controls, Mean” value ([3]; MMP-8) of the same compound?
**A.** Its value is 114%.

**Q.** And the “% activity relative to DMSO-only controls, single runs” value ([3]; MMP-8)?
**A.** The value was 99.7304% and 123.9354% and 116.1961% and 104.6766% and 117.7573% and 98.6189% and 113.4567% and 134.2719%.

**Q.** What about the “% activity relative to DMSO-only controls, Mean” value ([3]; MMP-9) of the same compound?
**A.** Its value is 96%.

**Q.** And the “% activity relative to DMSO-only controls, single runs” value ([3]; MMP-9)?
**A.** The value was 99.3059% and 91.4690% and 98.9883% and 93.1451% and 94.2109% and 106.2066% and 100.0306% and 85.1586%.

**Q.** And the “% activity relative to DMSO-only controls, Mean” value ([3]; MMP-12)?
**A.** Its value is 89%.

**Q.** And the “% activity relative to DMSO-only controls, single runs” value ([3]; MMP-12)?
**A.** Its value is 81.7387% and 84.5842% and 96.0954% and 81.6283% and 94.7460% and 96.1245% and 93.1866% and 82.8317%.

**Q.** What about the “% activity relative to DMSO-only controls, Mean” value ([3]; MMP-13) of the same compound?
**A.** Its value is 97%.

**Q.** And the “% activity relative to DMSO-only controls, single runs” value ([3]; MMP-13)?
**A.** The value was 85.9593% and 124.8564% and 91.0861% and 131.0115% and 78.1511% and 84.2743% and 87.8510% and 91.4553%.

**Q.** What about the “% activity relative to DMSO-only controls, Mean” value ([3]; MMP-14) of the same compound?
**A.** Its value is 117%.

**Q.** And the “% activity relative to DMSO-only controls, single runs” value ([3]; MMP-14)?
**A.** Its value is 110.7407% and 115.7751% and 123.1998% and 129.5171% and 110.1580% and 106.8971% and 114.7013% and 125.4828%.

**Q.** What about the “% activity relative to DMSO-only controls, Mean” value ([3]; MMP-19) of the same compound?
**A.** Its value is 92%.

**Q.** And the “% activity relative to DMSO-only controls, single runs” value ([3]; MMP-19)?
**A.** The value was 98.6000% and 87.1925% and 92.0753% and 96.2890% and 86.4215% and 92.6495% and 89.4846% and 96.8071%.

Source: PMC5814047, “Peptidic inhibitors of insulin-degrading enzyme with potential for dermatological applications discovered via phage display” (PLoS ONE, 2018)
